Results published in patent US12384801B2, “Benzothiophene, thienopyridine and thienopyrimidine derivatives for the modulation of sting” (CTXT PTY LTD, priority 2019, dated 2025).

How the values were obtained:
human STING (HAQ) [1] = molecular target: T1, human STING (HAQ) (Homo sapiens (Human), UniProt Q86WV6, G230A/H232R/R293Q); assay: Differential scanning fluorimetry (DSF), huSTING (HAQ); type: binding; settings: compound 100 μM, 2 μM protein, Tm with ligand minus Tm of protein alone (1% DMSO)
T1 sequence (Q86WV6 149-345 G230A/H232R/R293Q): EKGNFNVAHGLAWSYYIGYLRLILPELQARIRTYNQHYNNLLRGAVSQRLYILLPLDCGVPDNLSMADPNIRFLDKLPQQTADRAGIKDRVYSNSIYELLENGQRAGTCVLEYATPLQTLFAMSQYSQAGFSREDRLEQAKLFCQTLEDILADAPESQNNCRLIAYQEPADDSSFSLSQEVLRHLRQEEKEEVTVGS
Experimental: (§1) Data were analyzed using “Meltdown analysis” protocol described by Rosa (2015).

human STING (WT) [2] = molecular target: T2, human STING (WT) (Homo sapiens (Human), UniProt Q86WV6, H232R); assay: Differential scanning fluorimetry (DSF), huSTING (WT); type: binding; settings: compound 100 μM, 2 μM protein, Tm with ligand minus Tm of protein alone (1% DMSO)
T2 sequence (Q86WV6 149-345 H232R): as the sequence (Q86WV6 149-345 G230A/H232R/R293Q) above, with A82G, Q145R counted along it
Experimental: as §1

[3] = molecular target: human HAQ isoform of STING (Homo sapiens (Human), UniProt Q86WV6, G230A/H232R/R293Q/R71H); assay: THP-1 STING Lucia ISG reporter cell line assay; type: cell-based; settings: 24 h incubation, luminescence, normalized to ML RR-S2 CDA 40 μM; read-out: EC50 THP-I STING Lucia ISG cells
Chain of human HAQ isoform of STING (Q86WV6 whole entry R71H/G230A/H232R/R293Q, canonical isoform): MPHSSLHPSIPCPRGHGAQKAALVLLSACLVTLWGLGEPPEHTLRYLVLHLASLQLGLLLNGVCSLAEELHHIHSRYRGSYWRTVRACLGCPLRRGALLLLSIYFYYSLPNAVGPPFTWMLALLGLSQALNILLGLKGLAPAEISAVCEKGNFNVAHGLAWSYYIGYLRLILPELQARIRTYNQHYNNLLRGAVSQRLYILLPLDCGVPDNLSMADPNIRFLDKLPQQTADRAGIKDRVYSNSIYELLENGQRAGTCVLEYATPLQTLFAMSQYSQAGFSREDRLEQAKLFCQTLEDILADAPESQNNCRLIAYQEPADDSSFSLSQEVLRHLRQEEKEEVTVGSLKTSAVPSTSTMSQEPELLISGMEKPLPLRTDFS
Experimental: (§2) THP-1 STING Lucia ISG cells (InvivoGen #thpl-isg) were cultured in RPMI-1640 containing 2 mM L-glutamine, 25 mM HEPES, 100 μg/mL Normocin (InvivoGen) and 10% heat-inactivated FBS. Cells were seeded at a density of 7×10^5 cells/mL, maintained at 37° C./5% CO2, and passaged every 3-4 days. Selection pressure was maintained by the addition of 100 μg/mL Zeocin every second passage.
(§3) Assay conditions: cells were harvested and resuspended at a concentration of 5×10^5 cells/mL in fresh growth media. Of this cell preparation 20 μL per well was dispensed into 384 well cell culture plates (Greiner, #781098X) and incubated at 37° C./5% CO2 for 2 hours.
(§4) Concentration Response Curves (commonly 11 doses) were prepared by 2.5 fold serial dilution starting from 10 mM compound stock solution in DMSO. Compound dilutions were transferred into the cell culture plates using a pintool (0.1 μL transfer), control wells were matched for DMSO. Positive control wells received ML RR-S2 CDA (Med Chem Express HY12885B) in 5 μL of media to a final concentration of 40 μM. All other wells received additional 5 μL of media only to equalize volume. The plates were incubated for 24 h at 37° C./5% CO2.
(§5) For the detection step, QUANTI-Luc (InvivoGen #rep-qlc1) was prepared according to manufacturer's instruction and 10 μL were added per well to the culture plates. Plates were shaken for ten seconds on an orbital shaker and left in the dark at room temperature for two minutes, before luminescence was read on a Perkin Elmer Envision plate reader.
(§6) Data analysis: Luminescence raw data was normalized % activity relative to the signal of the positive control wells and negative control wells which were not treated with compound. The following formula was used to calculate normalized % activity from raw signals: % activity=(sample−negative)/(positive−negative)
(§7) The THP-1 STING Lucia ISG cell EC50 provides an assessment of activity at the human HAQ isoform of STING. For assessing compound activity against the WT human STING isoform, an equivalent method was conducted where the cells used were THP-1-Dual KI-hSTING-R232 (InvivoGen #thpd-r232).

WT human STING isoform = WT human STING isoform (Homo sapiens (Human), UniProt Q86WV6, H232R); assay: THP-1-Dual KI-hSTING-R232 reporter cell line assay; type: cell-based; settings: 24 h incubation, luminescence, normalized to ML RR-S2 CDA 40 μM; read-out: EC50 THP-1 Dual KI-hSTING-R232 cells
Chain of WT human STING isoform (Q86WV6 whole entry H232R, canonical isoform): as the sequence (Q86WV6 whole entry R71H/G230A/H232R/R293Q, canonical isoform) above, with H71R, A230G, Q293R counted along it
Experimental: as §2, §3, §4, §5, §6, §7

human STING (WT) [4] = molecular target: T2, human STING (WT); assay: Surface Plasmon Resonance (SPR), STING (WT); settings: read-out: SPR (WT) KD; biotinylated STING on streptavidin chip, 8° C.
human STING (HAQ) [5] = molecular target: T1, human STING (HAQ); assay: Surface Plasmon Resonance (SPR), STING (HAQ); settings: read-out: SPR (HAQ) KD; biotinylated STING on streptavidin chip, 8° C.
human STING (HAQ) [6] = molecular target: T1, human STING (HAQ); assay: biochemical
human STING (WT) [7] = molecular target: T2, human STING (WT); assay: biochemical

Row | Structure (SMILES) | DSF huSTING (HAQ) ΔTm (human STING (HAQ) [1]) [°C] | DSF huSTING (WT) ΔTm (human STING (WT) [2]) [°C] | EC50 [3] [nM] | EC50 (WT human STING isoform) [nM] | Kd (human STING (WT) [4]) [nM] | Kd (human STING (HAQ) [5]) [nM] | ΔTm at 100 µM (human STING (HAQ) [1]) [°C] | ΔTm at 100 µM (human STING (WT) [2]) [°C] | Kd (human STING (HAQ) [6]) [nM] | Kd (human STING (WT) [7]) [nM]
1 | COc1cccc2sc(C(=O)O)c(-c3nc4cc(C(N)=O)ccc4n3CCn3c(-c4c(C(=O)O)sc5cccc(OC)c45)nc4cc(C(N)=O)ccc43)c12 (single isomer, unassigned) [Example 5.1, 3,3′-(Ethane-1,2-diylbis(5-carbamoyl-1H-benzo[d]imidazole-1,2-diyl))bis(4-methoxybenzo[b]thiophene-2-carboxylic acid)] | 23.59 | 6.4 | > 40000 | 13600 | 692 | 20.9 |  |  |  | 
2 | NC(=O)c1ccc2c(c1)nc(-c1c(C(=O)O)sc3cccc(Cl)c13)n2CCCn1c(-c2c(C(=O)O)sc3cccc(Cl)c23)nc2cc(C(N)=O)ccc21 (single isomer, unassigned) [Example 4.1, 3,3′-(Propane-1,3-diylbis(5-carbamoyl-1H-benzo[d]imidazole-1,2-diyl))bis(4-chlorobenzo[b]thiophene-2-carboxylic acid)] | 2.85 | −0.82 | > 40000 | > 40000 | 500000 | 35100 |  |  |  | 
3 | CCOC(=O)c1sc2cccc(Cl)c2c1-c1nc2cc(C(N)=O)ccc2n1CCn1c(-c2c(C(=O)OCC)sc3cccc(Cl)c23)nc2cc(C(N)=O)ccc21 [Example A1, Diethyl 3,3′-(ethane-1,2-diylbis(5-carbamoyl-1H-benzo[d]imidazole-1,2-diyl))bis(4-chlorobenzo[b]thiophene-2-carboxylate)] |  |  | 18400 | 12000 | 16000 | 14900 | 0.36 | 1.84 |  | 
4 | COc1ccc(F)c2sc(C(=O)O)c(-c3nc4cc(C(N)=O)ccc4n3CCn3c(-c4c(C(=O)O)sc5c(F)ccc(OC)c45)nc4cc(C(N)=O)ccc43)c12 (single isomer, unassigned) [Example 13.1, 3,3′-(Ethane-1,2-diylbis(5-carbamoyl-1H-benzo[d]imidazole-1,2-diyl))bis(7-fluoro-4-methoxybenzo[b]thiophene-2-carboxylic acid)] | 31.23 | 18.17 | 8310 | 3750 | 300 | 4 |  |  |  | 
5 | COc1nccc2sc(C(=O)O)c(-c3nc4cc(C(N)=O)ccc4n3CCn3c(-c4c(C(=O)O)sc5ccnc(OC)c45)nc4cc(C(N)=O)ccc43)c12 [Example 7, 3,3′-(Ethane-1,2-diylbis(5-carbamoyl-1H-benzo[d]imidazole-1,2-diyl))bis(4-methoxythieno[3,2-c]pyridine-2-carboxylic acid)] |  |  | > 40000 | 7520 | 80000 | 28000 | 6.96 | 0.6 |  | 
6 | NC(=O)c1ccc2c(c1)nc(-c1c(C(=O)O)sc3cccc(Br)c13)n2CCn1c(-c2c(C(=O)O)sc3cccc(Br)c23)nc2cc(C(N)=O)ccc21 (single isomer, unassigned) [Example 11.1, 3,3′-(Ethane-1,2-diylbis(5-carbamoyl-1H-benzo[d]imidazole-1,2-diyl))bis(4-bromobenzo[b]thiophene-2-carboxylic acid)] | 31.05 | 17.83 | 182 | 172 | 63 | 1.64 |  |  |  | 
7 | NC(=O)c1ccc2c(c1)nc(-c1c(C(=O)O)sc3cccc(Cl)c13)n2CCn1c(-c2c(C(=O)O)sc3cccc(Cl)c23)nc2cc(C(N)=O)ccc21 (single isomer, unassigned) [Example 1.1, 3,3′-(Ethane-1,2-diylbis(5-carbamoyl-1H-benzo[d]imidazole-1,2-diyl))bis(4-chlorobenzo[b]thiophene-2-carboxylic acid)] | 31.8 | 19.9 | 681 | 271 | 119 | 1.7 |  |  |  | 
8 | NC(=O)c1ccc2c(c1)nc(-c1c(C(=O)O)sc3c(F)ccc(Br)c13)n2CCn1c(-c2c(C(=O)O)sc3c(F)ccc(Br)c23)nc2cc(C(N)=O)ccc21 (single isomer, unassigned) [Example 20.1, 3,3′-(Ethane-1,2-diylbis(5-carbamoyl-1H-benzo[d]imidazole-1,2-diyl))bis(4-bromo-7-fluorobenzo[b]thiophene-2-carboxylic acid)] | 31.76 | 22.71 | 1580 | 632 | 16 | 1.65 |  |  |  | 
9 | NC(=O)c1ccc2c(c1)nc(-c1c(C(=O)O)sc3cccc(Cl)c13)n2CCCCn1c(-c2c(C(=O)O)sc3cccc(Cl)c23)nc2cc(C(N)=O)ccc21 [Example 3, 3,3′-(Butane-1,4-diylbis(5-carbamoyl-1H-benzo[d]imidazole-1,2-diyl))bis(4-chlorobenzo[b]thiophene-2-carboxylic acid)] |  |  | > 40000 | > 40000 | 6300 | 5060 | -0.55 | -1.83 |  | 
10 | Cc1cccc2sc(C(=O)O)c(-c3nc4cc(C(N)=O)ccc4n3CCn3c(-c4c(C(=O)O)sc5cccc(C)c45)nc4cc(C(N)=O)ccc43)c12 (single isomer, unassigned) [Example 15.2, 3,3′-(Ethane-1,2-diylbis(5-carbamoyl-1H-benzo[d]imidazole-1,2-diyl))bis(4-methylbenzo[b]thiophene-2-carboxylic acid)] | 31.87 | 20.41 | 272 | 199 | 191 | 4.98 |  |  |  | 
11 | COc1cccc2sc(C(=O)O)c(-c3nc4cc(C(N)=O)ccc4n3CCn3c(-c4c(C(=O)O)sc5cccc(OC)c45)nc4cc(C(N)=O)ccc43)c12 (single isomer, unassigned) [Example 5.2, 3,3′-(Ethane-1,2-diylbis(5-carbamoyl-1H-benzo[d]imidazole-1,2-diyl))bis(4-methoxybenzo[b]thiophene-2-carboxylic acid)] |  | 19.17 | 1660 | 489 | 122 | 1.4 | 30.9 |  |  | 
12 | NC(=O)c1ccc2c(c1)nc(-c1c(C(=O)O)sc3cccc(Cl)c13)n2CCCn1c(-c2c(C(=O)O)sc3cccc(Cl)c23)nc2cc(C(N)=O)ccc21 (single isomer, unassigned) [Example 4.2, 3,3′-(Propane-1,3-diylbis(5-carbamoyl-1H-benzo[d]imidazole-1,2-diyl))bis(4-chlorobenzo[b]thiophene-2-carboxylic acid)] |  | −0.76 | > 40000 | 19000 |  |  | 4.56 |  | 16600 | 23000
